Consider two compounds from US20250002450A1, “CATIONIC STEROID COMPOUNDS, METHOD OF OBTAINING THEREOF, FORMULATIONS COMPRISING THEREOF AND THEIR USES” (UNIVERSIDADE DO PORTO, priority 2021, published 2025).

SMILES strings stand for the structures. Values after ≈ are worked out from the molar mass of the structure shown. Read-outs that look alike come from different tables or passages of the source.

Assay [1] concerns C. krusei ATCC 6258. The assay can be described thus: Antifungal MIC/MLC (broth microdilution). The assay is classed as cell-based, Candida krusei. On the procedure:
(§1) The antifungal activity of compound 1 was evaluated for a wide range of fungal species, covering yeasts and filamentous fungi, including dermatophytes. […] This antimicrobial effect was fungicidal, with minimal lethal concentrations (MLC) being equal to, or one or two-fold higher than the respective MIC. Twenty-three fungal strains were used in this study, including reference strains and clinical isolates of yeasts and filamentous fungi. Yeast strains included reference strains (ATCC—American Type Culture Collection and CECT—Colección Española de Cultivos Tipo) and clinical isolates: C. albicans ATCC 10231, Candida krusei ATCC 6258, C. albicans H37, C. albicans FF172, C. albicans FF176, C. albicans DSY294, C. albicans DSY296, C. glabrata DSY562, C. glabrata DSY565 and Cryptococcus neoformans CECT 1078. Filamentous fungi included Aspergillus fumigatus ATCC 240305, A. fumigatus C111, A. niger ATCC 16404, A. flavus F44, Fusarium solani FF125, F. oxysporum FF115, and dermatophytes Trichophyton rubrum FF5, T. mentagrophytes FF7, Microscoporum canis FF1 and Nannizzia gypsea FF3 (formerly Microsporum gypseum) and a species of genera Mucor, Lichetheimia and Scedosporium. Saprolegnia parasitica CBS 223.65, a reference strain of an oomycete fish pathogen, was also included. All microorganisms were kept in Sabouraud Dextrose Broth (SDB: BioMérieux, Marcy L'Etoile, France) plus glycerol (20%) at −80° C. The strains were kept in Sabouraud Dextrose Agar (SDA: BioMérieux, Marcy L'Etoile, France) slants and were sub-cultured in SDA before each test. S. parasitica was kept in Corn Meal Agar plates (CMA: BBL™ Corn Meal Agar, BD, Le Pont-de-Claix, France) and was sub-cultured in CMA before each experiment. C. albicans H37, was kindly provided by Cidilia Pina Vaz (CHSJ, Porto, Portugal) and C. albicans DSY294, C. albicans DSY296, C. glabrata DSY562, C. glabrata DSY565 were kindly provided by D. Sanglard (University of Lausanne, Switzerland). A stock solution of compound 1 (10 mg/mL), was prepared in dimethyl sulfoxide (DMSO 99%: Alfa Aesar, Kandel, Germany), kept at −20 degrees C., and freshly diluted in the appropriate culture media before each assay. In all experiments, in-test concentrations of DMSO were kept below 2%. Fluconazole (Alfa Aesar, Ward Hill, MA, USA) was tested as commercial antifungal.
(§2) Antifungal activity was evaluated by determining the MIC of compound 1 by the broth microdilution method, according to CLSI guidelines (reference documents M27-A3 for yeasts and M38-A2 for filamentous fungi). […] The minimal lethal concentration (MLC) was determined by spreading 20 μL of culture collected from wells showing no visible growth on SDA plates. The MLC was determined as the lowest concentration showing complete growth inhibition after 48 h at 35 degrees C., 48 h at 25 degrees C. […]

The subject of assay [2] is A. fumigatus C111. The assay can be described thus: Antifungal MIC/MLC (broth microdilution). Conditions: A. fumigatus C111, resistant to azoles. The format is cell-based, Aspergillus fumigatus. Here is the method: as §1, §2
The test system of assay [3] is C. albicans ATCC 10231. The assay can be described thus: Mitochondrial dehydrogenases activity, MTT reduction assay. Particulars: 2 h. The assay is classed as cell-based, Candida albicans. Here is the method:
In order to determine whether compound 1 could also affect mitochondrial function, MTT reduction assay was performed. In this assay, tetrazolium salts are reduced to purple formazan derivatives by mitochondrial dehydrogenases, which can be measured spectrophotometrically and reported to mitochondrial activity and, indirectly, to cell viability. In this assay, cells were exposed to the test compounds for 2 h ([FIG. 11]). […] An increase in reactive oxygen species (ROS) has been linked to azoles activity: even though their primary mode of action is the inhibition of ergosterol synthesis, they also induce accumulation of ROS, which enhances their antifungal activity and translates into an increase in mitochondrial activity at inhibitory concentrations. […] Mitochondrial dehydrogenase activity was evaluated by the MTT assay, as previously described, with some modifications. Cell suspensions of C. albicans ATCC 10231 were prepared in the same manner as described above and, after overnight incubation at 36° C., were centrifuged at 3500 rpm for 15 min, the supernatant was removed, and the cells were carefully resuspended in 2 mL of RPMI. Test conditions and controls were the same as described above, but the time of exposure to the test compounds was 2 h. After the exposure time, cell suspensions were centrifuged at 3500 rpm for 10 min, the supernatant was removed, and 500 μL of MTT solution (0.5 mg/mL in RPMI, at 35° C.) (Thiazolyl Blue Tetrazolium Bromide, Alfa Aesar, Ward Hill, MA, USA) were added. After a 1 h incubation at 35° C., the insoluble formazan product resulting from the conversion of MTT by mitochondrial dehydrogenases of metabolically active cells was solubilized with 300 μL of DMSO. 100 μL of each sample were transferred in duplicate to a microtiter plate and the extent of the reduction of MTT to formazan was quantified by measuring the absorbance at 570 nm. Three independent assays were performed in duplicate, and the results are expressed as percentage of MTT reduction, using the untreated cells as control.

Where [4] appears, read: C. krusei ATCC 6258, intrinsically resistant to fluconazole.

Consider `C[C@H](CCC(=O)NCCN)[C@H]1CC[C@H]2[C@@H]3CC[C@@H]4C[C@H](O)CC[C@]4(C)[C@H]3C[C@H](O)[C@]12C` [Compound 1, (R)—N-(2-aminoethyl)-4-((3R,5R,8R,9S,10S,12S,13R,14S,17R)-3,12-dihydroxy-10,13-dimethylhexadecahydro-1H-cyclopenta[a]phenanthren-17-yl) pentanamida], for which, in assay [1] (setting [4]), the minimal inhibitory concentration (MIC) was found to be 64 µg/mL (≈ 147 µM) and the MLC came out at 64 µg/mL (≈ 147 µM). In assay [2], this compound yielded an MIC of 128 µg/mL (≈ 294 µM) and an MLC above 128 µg/mL. The “mitochondrial activity (MTT reduction) vs untreated control” value in assay [3] (128, 64, and 32 μg/mL (2×MIC, MIC, ½×MIC)) is recorded as “significant reduction of mitochondrial activity”.

For `OC(Cn1cncn1)(Cn1cncn1)c1ccc(F)cc1F` [Fluconazole, reference compound], the MLC in assay [1] (setting [4]) and in assay [2] was above 128 µg/mL throughout. Further, the MIC is 32 µg/mL (≈ 104 µM) in assay [1] (Pichia kudriavzevii, ATCC6258, read-out: MIC) and at least 128 µg/mL in assay [2] (Aspergillus fumigatus, read-out: MIC). For the same compound, the “mitochondrial activity (MTT reduction) vs untreated control” value in assay [3] (8 μg/mL) is recorded as “increase (non-significant)”.
